Test results taken from patent US8673892B2, “Phenyl bicyclic methyl azetidine derivatives as sphingosine-1 phosphate receptors modulators” (Allergan, Inc., priority 2011, dated 2014).

Molecular target: T1, human S1P1 receptor (Homo sapiens, UniProt P21453)
T1 construct: expressed in transfected cells; membranes used
Assay: GTP γ35S binding assay for S1P1 activity
Format: biochemical
Settings: membranes of cells stably expressing the S1P1 receptor; agonist-induced GTP γ35S binding; read-out: EC50 at the S1P1 receptor from GTP γ35S
Protocol: Compounds were synthesized and tested for S1P1 activity using the GTP γ^35S binding assay. These compounds may be assessed for their ability to activate or block activation of the human S1P1 receptor in cells stably expressing the S1P1 receptor.
GTP γ^35S binding was measured in the medium containing (mM) HEPES 25, pH 7.4, MgCl2 10, NaCl 100, dithitothreitol 0.5, digitonin 0.003%, 0.2 nM GTP γ^35S, and 5 μg membrane protein in a volume of 150 μl. Test compounds were included in the concentration range from 0.08 to 5,000 nM unless indicated otherwise. Membranes were incubated with 100 μM 5′-adenylylimmidodiphosphate for 30 min, and subsequently with 10 μM GDP for 10 min on ice. Drug solutions and membrane were mixed, and then reactions were initiated by adding GTP γ^35S and continued for 30 min at 25° C. Reaction mixtures were filtered over Whatman GF/B filters under vacuum, and washed three times with 3 mL of ice-cold buffer (HEPES 25, pH7.4, MgCl2 10 and NaCl 100). Filters were dried and mixed with scintillant, and counted for ^35S activity using a β-counter. Agonist-induced GTP γ^35S binding was obtained by subtracting that in the absence of agonist. Binding data were analyzed using a non-linear regression method. In case of antagonist assay, the reaction mixture contained 10 nM […] in the presence of test antagonist at concentrations ranging from 0.08 to 5000 nM.

T1 sequence (P21453 whole entry): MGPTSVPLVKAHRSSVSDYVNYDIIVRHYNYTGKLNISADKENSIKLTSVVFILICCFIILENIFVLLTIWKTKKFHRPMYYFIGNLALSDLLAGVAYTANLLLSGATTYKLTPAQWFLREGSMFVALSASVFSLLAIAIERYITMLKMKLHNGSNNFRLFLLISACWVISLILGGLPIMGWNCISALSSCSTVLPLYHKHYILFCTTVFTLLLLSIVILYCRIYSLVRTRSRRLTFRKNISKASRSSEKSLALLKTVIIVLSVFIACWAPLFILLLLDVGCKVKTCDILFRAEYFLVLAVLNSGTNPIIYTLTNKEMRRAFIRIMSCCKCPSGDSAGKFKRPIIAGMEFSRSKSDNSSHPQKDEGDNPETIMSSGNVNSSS

EC50: 1550 nM
SMILES: CCCCCCc1ccc(-c2ccc(CN3CC(C(=O)O)C3)c3ncccc23)cc1 [Compound 1, 1-{[5-(4-hexylphenyl)quinolin-8-yl]methyl}azetidine-3-carboxylic acid]
